36 compounds from patent US8168651B2, “Protein kinase modulators” (Cylene Pharmaceuticals, Inc., priority 2008, dated 2012) can be followed below.

Like-named read-outs stand apart in the source and are kept apart here.

One assay deals with recombinant human CK2 (Homo sapiens (Human), UniProt P68400). As to the kind of experiment: CK2 assay (cell-free, 33P-ATP filter plate). Type of assay: biochemical. To be noted: 500 nM compound, read-out: CK2: % inh 500 nM.
The next assay addresses recombinant human PIM1 (Homo sapiens (Human), UniProt P11309). As to the kind of experiment: PIM-1 kinase activity in cell-free in vitro assay. Conditions: for inhibition at 0.5 µM: 500 nM compound, read-out: PIM-1: % inh 500 nM. Type of assay: biochemical.
For assay [1], the system named is HCT-116 human colorectal carcinoma cells. The experiment in a line: Cell-proliferation assay using Alamar Blue dye.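 Note: cells exposed to compound for about 4 days, then Alamar Blue added and dye fluorescence read after about 4 h, compared with medium-only control wells.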 Type of assay: cell-based. To be noted: Homo sapiens. For orientation: The colour change of resazurin is a common sign of viable cells or microbes.
Another assay deals with K-562. The experiment in a line: Cell proliferation modulatory activity, K-562. Type of assay: cell-based. To be noted: Homo sapiens, K562; K-562 cells.
Where [2] appears, read: HCT-116, HCT-116, second column, read-out: HCT-116 (uM), cell proliferation modulatory activity.
[3] abbreviates: HCT-116, second HCT-116 column (c8), read-out: HCT-116 (uM) cell proliferation modulatory activity.

Sequence of recombinant human PIM1 (P11309 whole entry): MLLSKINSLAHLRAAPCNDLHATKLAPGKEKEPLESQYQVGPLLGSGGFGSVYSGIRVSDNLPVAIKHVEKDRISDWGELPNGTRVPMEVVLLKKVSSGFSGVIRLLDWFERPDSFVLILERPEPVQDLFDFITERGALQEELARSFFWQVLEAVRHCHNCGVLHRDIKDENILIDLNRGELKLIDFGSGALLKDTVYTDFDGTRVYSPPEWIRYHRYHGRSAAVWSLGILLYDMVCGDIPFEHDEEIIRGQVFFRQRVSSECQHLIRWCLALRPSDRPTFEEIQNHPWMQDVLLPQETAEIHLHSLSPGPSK
Sequence of recombinant human CK2 (P68400 whole entry): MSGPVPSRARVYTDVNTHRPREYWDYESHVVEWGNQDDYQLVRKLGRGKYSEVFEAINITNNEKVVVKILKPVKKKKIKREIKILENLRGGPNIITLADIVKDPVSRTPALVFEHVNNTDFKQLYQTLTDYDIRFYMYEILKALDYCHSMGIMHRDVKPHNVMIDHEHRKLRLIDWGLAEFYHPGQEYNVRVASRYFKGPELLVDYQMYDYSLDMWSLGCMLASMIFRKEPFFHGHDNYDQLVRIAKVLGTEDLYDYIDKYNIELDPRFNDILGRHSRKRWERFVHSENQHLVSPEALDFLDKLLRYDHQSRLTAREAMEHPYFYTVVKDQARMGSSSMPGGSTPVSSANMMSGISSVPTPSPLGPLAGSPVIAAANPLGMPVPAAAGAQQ
Sequence of recombinant human CK2 (P67870 whole entry partner): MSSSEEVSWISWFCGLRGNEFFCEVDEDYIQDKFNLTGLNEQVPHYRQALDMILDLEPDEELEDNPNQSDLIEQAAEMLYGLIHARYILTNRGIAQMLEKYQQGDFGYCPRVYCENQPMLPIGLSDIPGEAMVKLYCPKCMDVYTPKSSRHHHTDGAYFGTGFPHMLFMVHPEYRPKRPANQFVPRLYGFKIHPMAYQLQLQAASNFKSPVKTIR

For the compound `CC(C)(C)OC(=O)CCNC(=O)c1cccc(Nc2nc3cc(-c4nnn[nH]4)ccc3c3sccc23)c1`, the inhibition at 0.5 µM on recombinant human CK2 (cell-free) is 40.5%; on recombinant human PIM1 (cell-free), -11.7%. The IC50 in assay [1] (setting [2]) was greater than 10 µM.

With `O=C(O)c1ccc2c(c1)nc(Nc1cccc(C(=O)Nc3ccccc3)c1)c1ccsc12`, the inhibition at 0.5 µM on recombinant human CK2 (cell-free) is 37.7%; at recombinant human PIM1 (cell-free) it was -20.9%. In addition, the IC50 in assay [1] (setting [2]) was greater than 10 µM.

As for `O=C(O)c1ccc2c(c1)nc(Nc1cccc(C(=O)Nc3nccs3)c1)c1ccsc12`, the inhibition at 0.5 µM was 52.9% at recombinant human CK2 (cell-free) and 5.99% at recombinant human PIM1 (cell-free). For the same compound, the IC50 in assay [1] (setting [2]) was greater than 10 µM.

For the compound `CC(C)(C)OC(=O)CCNC(=O)c1cccc(Nc2nc3cc(C(=O)O)ccc3c3sccc23)c1`, the inhibition at 0.5 µM on recombinant human CK2 (cell-free) amounted to 65.5%; at recombinant human PIM1 (cell-free), 22.4%. The IC50 in assay [1] (setting [2]) is greater than 10 µM.

As to `O=C(O)c1ccc2c(c1)nc(Nc1cccc(C(=O)NCc3cccnc3)c1)c1ccsc12`, the inhibition at 0.5 µM on recombinant human CK2 (cell-free) stood at 62.2%; at recombinant human PIM1 (cell-free), 25.8%. Further, the IC50 in assay [1] (setting [2]) was greater than 10 µM.

As for `CN(C)C(=O)c1cccc(Nc2nc3cc(C(=O)O)ccc3c3sccc23)c1`, the inhibition at 0.5 µM is 21.3% at recombinant human CK2 (cell-free) and -12.2% on recombinant human PIM1 (cell-free). In addition, the IC50 in assay [1] (setting [2]) is greater than 10 µM.

On to `Cc1cc(CNC(=O)c2cccc(Nc3nc4cc(C(=O)O)ccc4c4sccc34)c2)no1`, for which the inhibition at 0.5 µM was determined as 62.7% at recombinant human CK2 (cell-free) and 10.6% on recombinant human PIM1 (cell-free). The IC50 in assay [1] (setting [2]) was greater than 10 µM.

As to `COCCNC(=O)c1cccc(Nc2nc3cc(C(=O)O)ccc3c3sccc23)c1`, the inhibition at 0.5 µM on recombinant human CK2 (cell-free) turned out to be 65.2%; at recombinant human PIM1 (cell-free), 12%. Further, the IC50 in assay [1] (setting [2]) is greater than 10 µM.

As for `CC(=O)N1CCN(C(=O)c2cccc(Nc3nc4cc(C(=O)O)ccc4c4sccc34)c2)CC1`, the inhibition at 0.5 µM is 36.5% at recombinant human CK2 (cell-free) and 20.8% on recombinant human PIM1 (cell-free). Besides, the IC50 in assay [1] (setting [2]) was greater than 10 µM.

Consider `O=C(Cc1cccc(Nc2nc3cc(C(=O)O)ccc3c3sccc23)c1)NC1CC1`, for which the inhibition at 0.5 µM at recombinant human CK2 (cell-free) is 51.2%; at recombinant human PIM1 (cell-free), 19.1%. Besides, the IC50 in assay [1] (setting [2]) is greater than 10 µM.

In the case of `COC(=O)c1ccc2c(c1)nc(Nc1cccc(CC(=O)O)c1)c1ccsc12`, the figures for the inhibition at 0.5 µM at recombinant human CK2 (cell-free) and on recombinant human PIM1 (cell-free) were -6.27% and 8.94%, respectively. Moreover, in assay [1] (setting [2]), the IC50 is greater than 10 µM.

Regarding `CN(C)C(=O)Cc1cccc(Nc2nc3cc(C(=O)O)ccc3c3sccc23)c1`, the values for the inhibition at 0.5 µM at recombinant human CK2 (cell-free) and on recombinant human PIM1 (cell-free) were 55.4% and 42.5%, respectively. In addition, the IC50 in assay [1] (setting [2]) is greater than 10 µM.

Take `O=C(O)c1ccc2c(c1)nc(Nc1cccc(-c3ccccc3)c1)c1ccsc12`: the inhibition at 0.5 µM at recombinant human CK2 (cell-free) is 65.8%; on recombinant human PIM1 (cell-free) it was 4.58%. In assay [1] (setting [2]), the IC50 is greater than 10 µM.

For `COC(=O)c1ccc2c(c1)nc(Nc1ccccc1)c1nc(SC)ncc12`, the inhibition at 0.5 µM at recombinant human CK2 (cell-free) is 6.43%; on recombinant human PIM1 (cell-free), -26.7%. In assay [1] (setting [2]), the IC50 is 9.56 µM.

On to `COC(=O)c1ccc2c(c1)nc(Nc1ccccc1)c1nc(S(C)(=O)=O)ncc12`, for which the inhibition at 0.5 µM was -44.2% at recombinant human CK2 (cell-free) and -27.8% at recombinant human PIM1 (cell-free). In assay [1] (setting [2]), the IC50 is 0.967 µM.

Regarding `CSc1ncc2c(n1)c(Nc1ccccc1C)nc1cc(C(=O)O)ccc12`, the inhibition at 0.5 µM on recombinant human PIM1 (cell-free assay) was found to be 9.67%. The IC50 (with K-562; in assay [1] (setting [3])) was greater than 10 µM in each case.

With `COC(=O)c1ccc2c(c1)nc(N(C)c1ccccc1)c1nc(S(C)(=O)=O)ncc12`, the inhibition at 0.5 µM at recombinant human PIM1 (cell-free assay) amounted to 9.84%. Further, the IC50 amounted to 0.334 µM in the assay with K-562 and 4.36 µM in assay [1] (setting [3]).

`CN(c1ccccc1)c1nc2cc(C(=O)O)ccc2c2cnc(NC3CC3)nc12`: at recombinant human PIM1 (cell-free assay), the inhibition at 0.5 µM was 31.4%. The IC50 (in the assay with K-562; in assay [1] (setting [3])) was greater than 10 µM each time.

`CNC(=O)c1ccc2c(c1)nc(N(C)c1ccccc1)c1nc(NC3CC3)ncc12`: the inhibition at 0.5 µM on recombinant human PIM1 (cell-free assay) is 12.6%. For the same compound, the IC50 with K-562 was greater than 10 µM; in assay [1] (setting [3]), 9.74 µM.

Consider `CN(c1ccccc1)c1nc2cc(C(=O)NC3CC3)ccc2c2cnc(NC3CC3)nc12`, for which the inhibition at 0.5 µM at recombinant human PIM1 (cell-free assay) is 16.1%. Besides, the IC50 (with K-562; in assay [1] (setting [3])) was greater than 10 µM throughout.

As for `CN(C)C(=O)c1ccc2c(c1)nc(N(C)c1ccccc1)c1nc(NC3CC3)ncc12`, the inhibition at 0.5 µM at recombinant human PIM1 (cell-free assay) is -0.201%. The IC50 in the assay with K-562 is greater than 10 µM; in assay [1] (setting [3]), 5.19 µM.

In the case of `CNC(=O)c1ccc2c(c1)nc(Nc1ccccc1C)c1nc(NC3CC3)ncc12`, the inhibition at 0.5 µM at recombinant human PIM1 (cell-free assay) was determined as 4.21%. Further, the IC50 in the assay with K-562 is greater than 10 µM; in assay [1] (setting [3]), 1.61 µM.

Take `Cc1ccccc1Nc1nc2cc(C(=O)N(C)C)ccc2c2cnc(NC3CC3)nc12`: on recombinant human PIM1 (cell-free assay), the inhibition at 0.5 µM came to 0.71%. Further, the IC50 (in the assay on K-562; in assay [1] (setting [3])) was greater than 10 µM throughout.

`Cc1ccccc1Nc1nc2cc(C(=O)NC3CC3)ccc2c2cnc(NC3CC3)nc12`: on recombinant human PIM1 (cell-free assay), the inhibition at 0.5 µM turned out to be 5.72%. Also, the IC50 (with K-562; in assay [1] (setting [3])) was greater than 10 µM each time.

Regarding `O=C(O)c1ccc2c(c1)nc(N1CCc3c([nH]c4ccccc34)C1)c1ccncc12`, the inhibition at 0.5 µM at recombinant human PIM1 (cell-free assay) worked out at 38.8%. In addition, the IC50 (in the assay with K-562; in assay [1] (setting [3])) was greater than 10 µM throughout.

Turning to `O=C(O)c1ccc2c(c1)nc(NCCn1ccnc1)c1ccncc12`, on recombinant human PIM1 (cell-free assay), the inhibition at 0.5 µM was 51.8%. In addition, the values for the IC50 (at recombinant human PIM1 (cell-free assay); in the assay on K-562; in assay [1] (setting [3])) were greater than 1.1 µM, greater than 10 µM and greater than 10 µM, respectively.

For `O=C(O)c1ccc2c(c1)nc(NCC1CCN1Cc1ccccc1)c1ccncc12` (stereo not drawn), the figures for the inhibition at 0.5 µM at recombinant human CK2 (cell-free assay) and at recombinant human PIM1 (cell-free assay) were 55.9% and -7.8%, respectively. For the same compound, the IC50 (with K-562; in assay [1] (setting [3])) was greater than 10 µM in each case.

As to `COC(=O)c1ccc2c(c1)nc(NN)c1ccncc12`, the inhibition at 0.5 µM is -8.65% at recombinant human CK2 (cell-free assay) and -32.4% on recombinant human PIM1 (cell-free assay). Also, the IC50 (in the assay on K-562; in assay [1] (setting [3])) was greater than 10 µM in each case.

Regarding `O=C(O)c1ccc2c(c1)nc(Nc1ccn[nH]1)c1ccncc12`, the inhibition at 0.5 µM stood at 94.8% at recombinant human CK2 (cell-free assay) and 1.37% on recombinant human PIM1 (cell-free assay). Also, the IC50 (in the assay with K-562; in assay [1] (setting [3])) was greater than 10 µM in each case.

For the compound `O=C(O)c1ccc2c(c1)nc(NN1CCCCC1)c1ccncc12`, the IC50 is greater than 1.1 µM at recombinant human PIM1 (cell-free assay), greater than 10 µM with K-562 and greater than 10 µM in assay [1] (setting [3]).

With `O=C(O)c1ccc2c(c1)nc(Nc1ccccc1)c1ncccc12`, the IC50 (in the assay on K-562; in assay [1] (setting [3])) was greater than 10 µM each time.

`O=C(O)c1ccc2c(c1)nc(Nc1ccccc1Oc1ccccc1)c1ccncc12`: the figures for the inhibition at 0.5 µM on recombinant human CK2 (cell-free assay) and at recombinant human PIM1 (cell-free assay) were 96.5% and 25%, respectively. For the same compound, in assay [1] (setting [3]), the IC50 was greater than 10 µM.

In the case of `O=C(O)c1ccc2c(c1)nc(Nc1ccccc1)c1nccnc12`, the inhibition at 0.5 µM is 41.5% at recombinant human CK2 (cell-free assay) and -7.65% at recombinant human PIM1 (cell-free assay). In addition, the IC50 in assay [1] (setting [3]) was greater than 10 µM.

Turning to `O=C(O)c1ccc2c(c1)nc(NCCc1ccccc1)c1nccnc12`, the inhibition at 0.5 µM at recombinant human CK2 (cell-free assay) is 5.49%; at recombinant human PIM1 (cell-free assay), -26%. Further, in assay [1] (setting [3]), the IC50 was greater than 10 µM.

On to `O=C(O)c1ccc2c(c1)nc(Nc1cccc(F)c1)c1nccnc12`, for which the inhibition at 0.5 µM was determined as 88.7% at recombinant human CK2 (cell-free assay) and 21.9% at recombinant human PIM1 (cell-free assay). In assay [1] (setting [3]), the IC50 was greater than 10 µM.

Regarding `CN(c1ccccc1)c1nc2cc(C(=O)O)ccc2c2nccnc12`, the inhibition at 0.5 µM at recombinant human CK2 (cell-free assay) is 19.3%; at recombinant human PIM1 (cell-free assay), 1.15%. Further, the IC50 in assay [1] (setting [3]) was greater than 10 µM.
